Eight compounds from US4021472A, “Guanidinobenzoic acid derivatives” (Ono Pharmaceutical Co., Ltd., priority 1974, dated 1977) can be followed below.

In brackets after ≈: the same amount, converted by molar mass. Read-outs that look alike come from different tables or passages of the source.

In data set [1] the target is T1, trypsin (Bos taurus, UniProt P00760).
T1 sequence (P00760 24-246): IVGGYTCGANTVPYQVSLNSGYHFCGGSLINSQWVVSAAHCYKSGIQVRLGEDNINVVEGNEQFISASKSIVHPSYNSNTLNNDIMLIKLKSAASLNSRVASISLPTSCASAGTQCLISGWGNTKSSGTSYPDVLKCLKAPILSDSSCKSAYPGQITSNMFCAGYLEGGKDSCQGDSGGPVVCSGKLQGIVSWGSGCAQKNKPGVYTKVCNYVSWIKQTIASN
The data set can be described thus: Anti-trypsin: 50% inhibition of hydrolysis of p-tosylarginine methyl ester by trypsin in vitro. It counts as biochemical. The following applies: 37° C., 30 minutes, Tris-HCl buffer pH 8.5, p-tosylarginine methyl ester substrate; read-out: 50% Inhibition Concentration, Anti-Trypsin. On the procedure:
The inhibitory activities of representative compounds of formula (I) against plasmin and trypsin in vitro were determined in a manner similar to the method described by M. Muramatsu et al (J. Biochemistry 57, 402 (1965)) for plasmin, and the method described by M. Muramatsu et al (J. Biochemistry 58, 214 (1964)) for trypsin, as follows:
(2) Trypsin: A system comprising 0.4 ml of trypsin (1.25 μg/ml), 0.5 ml of p-tosylarginine methyl ester (20 mM) in Tris-HCl buffer (pH 8.5) and 0.1 ml of a solution of each of the following compounds of formula (I) at various concentrations was reacted at a temperature of 37° C. for 30 minutes. The concentration of each of the test compounds at which the activity of trypsin 0.5 μg to hydrolyze p-tosylarginine methyl ester was 50% inhibited is shown in Table 1 below. As a control, Trasylol (tradename of a peptide extracted from bovine organs having an inhibitory activity against a proteolytic enzyme and manufactured by Bayer A.G.) was used.

Data set [2] has as its target T2, plasmin (Homo sapiens, UniProt P00747).
T2 construct: from tissue
The experiment in a line: Anti-plasmin: 50% inhibition of plasmin in vitro (euglobulin/streptokinase/fibrinogen system). It counts as biochemical. How it is done:
(1) Plasmin: A system comprising 0.1 ml of human euglobulin (10 fold dilution), 0.1 ml of streptokinase (2000 unit/ml), 0.4 ml of fibrinogen (4% solution), 0.3 ml of a 0.1 M borate saline buffer solution (pH 7.4) and 0.1 ml of a solution of each of the following compounds of formula (I) at various concentrations was allowed to react at a temperature of 37° C. for 30 minutes.

The nature of data set [3]: Solubility in water. Type of data set: physicochemical.
Data set [4] concerns plasmin. The experiment in a line: Inhibitory effects for fibrinolysis of plasmin (fibrinolytic activity in rabbits after human serum and streptokinase). It counts as in vivo, rabbit. The following applies: 5 mg/kg iv. How it is done: Inhibitory effects for fibrinolysis of plasmin were examined according to the method of S. Okamoto and U. Okamoto (Keio Journal of Medicine 11 (No. 3) 105 (1962)).
10 ml of human serum was administered to male rabbits weighing 2.0 to 2.5 Kg through the femoral vein, and after 2 minutes 50,000 units of streptokinase was administered to the rabbits intraveneously to activate plasmin.
Each of the test compounds of the present invention was administered to the rabbits at a dosage level of 5 mg/Kg 5 minutes after the administration of streptokinase. After 15, 30, 60, 90, 120 and 180 minutes, 0.5 ml of blood was drawn from the rabbits, and the blood then incubated at 37° C. for 3 hrs. to coagulate the blood. The thus formed blood clots were washed with water and dried. The dry weight of the blood clots was evaluated and compared with the normal value (the value obtained prior to administration of the human serum).
The values in Table 2 were calculated according to the following equation: [formula]

In data set [5] the test system is rat pancreatitis. The data set can be described thus: Effect on rat pancreatitis induced by sodium taurocholate and trypsin (mortality). Type of data set: in vivo, rat (male Wistar). The following applies: intravenous injection. How it is done: Male Wistar rats weighing 200 to 250 g were laparotomized under anesthetization with pentobarbital and to the thus laparotomized rats 0.1 ml of a mixture of sodium taurocholate and trypsin was administered through the pancreatic duct to induce pancreatitis.
Mortality rates for up to 48 hrs. after the administration were compared between the groups in which the compounds of the present invention were injected intravenously and the control groups in which a physiological salt solution was injected intravenously.

Where [6] appears, read: 37° C., 30 minutes, borate saline buffer pH 7.4, human euglobulin, streptokinase, fibrinogen, read-out: 50% Inhibition Concentration, Anti-Plasmin.

T2 sequence (P00747 581-810 limits assumed): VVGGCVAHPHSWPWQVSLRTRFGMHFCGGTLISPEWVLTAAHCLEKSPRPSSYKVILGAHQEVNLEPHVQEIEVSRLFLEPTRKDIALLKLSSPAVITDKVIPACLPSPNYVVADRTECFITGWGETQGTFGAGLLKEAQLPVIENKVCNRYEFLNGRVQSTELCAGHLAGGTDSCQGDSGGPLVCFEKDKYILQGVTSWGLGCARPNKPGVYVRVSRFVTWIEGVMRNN
T2 sequence (P00747 97-580 partner limits assumed): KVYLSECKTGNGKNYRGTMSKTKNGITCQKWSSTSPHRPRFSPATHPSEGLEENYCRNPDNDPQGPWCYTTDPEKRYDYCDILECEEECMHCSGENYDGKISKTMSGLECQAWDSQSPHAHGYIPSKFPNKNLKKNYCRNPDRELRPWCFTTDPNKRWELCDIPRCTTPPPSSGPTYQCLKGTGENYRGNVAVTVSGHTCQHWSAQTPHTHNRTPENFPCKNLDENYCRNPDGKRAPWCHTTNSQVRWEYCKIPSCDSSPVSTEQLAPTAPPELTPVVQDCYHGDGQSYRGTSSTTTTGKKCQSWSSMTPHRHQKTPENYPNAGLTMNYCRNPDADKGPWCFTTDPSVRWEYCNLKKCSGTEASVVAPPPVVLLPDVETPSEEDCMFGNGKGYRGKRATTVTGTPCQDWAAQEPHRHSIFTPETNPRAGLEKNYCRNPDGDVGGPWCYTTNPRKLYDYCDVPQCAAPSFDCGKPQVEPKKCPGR

For the compound `CNC(=O)COC(=O)c1ccc(OC(=O)c2ccc(NC(=N)N)cc2)cc1` [Compound No.2], the IC50 in data set [1] worked out at 3.5 nM; in data set [2] (setting [6]), 1.6 nM. Besides, the solubility (commonly the concentration that dissolves in the medium under given conditions) in data set [3] came to 50 mM (≈ 18500 µg/mL). Besides, the “Fibrinolytic Activity in Rabbits” value in data set [4] (15 min. after) turned out to be 0%; in data set [4] (30 min. after), 0%; in data set [4] (60 min. after), 2%; in data set [4] (90 min. after) it was 2%; in data set [4] (120 min. after), 12%; in data set [4] (180 min. after), 31%. In addition, the results for the “Mortality for 48 hrs.” value in data set [5] (1 mg/kg), in data set [5] (2.5 mg/kg) and in data set [5] (5.0 mg/kg) were 85.7%, 42.8% and 30%, respectively.

As for `N=C(N)Nc1ccc(C(=O)Oc2ccc(C(=O)OCC(N)=O)cc2)cc1` [compound 1], the results for the IC50 in data set [1] and in data set [2] (setting [6]) were 3 nM and 15 nM, respectively. The amount in solution in data set [3] (solubility) came to 1 mM (≈ 356 µg/mL).

`CN(C)C(=O)COC(=O)c1ccc(OC(=O)c2ccc(NC(=N)N)cc2)cc1` [compound 3]: the results for the IC50 in data set [1] and in data set [2] (setting [6]) were 2.7 nM and 2 nM, respectively. The solubility in data set [3] is greater than 20 mM.

Turning to `CN(C)C(=O)COC(=O)CCc1ccc(OC(=O)c2ccc(NC(=N)N)cc2)cc1` [compound 7], the IC50 in data set [1] turned out to be 0.56 nM; in data set [2] (setting [6]) it was 120 nM. The same compound gave a solubility in data set [3] of 10 mM (≈ 4120 µg/mL).

`CN(C)C(=O)COC(=O)C=Cc1ccc(OC(=O)c2ccc(NC(=N)N)cc2)cc1` [compound 6]: the IC50 in data set [1] is 0.09 nM; in data set [2] (setting [6]) it was 19.5 nM. The compound also registered a solubility in data set [3] of 10 mM (≈ 4100 µg/mL).

For the compound `CN(C)C(=O)COC(=O)Cc1ccc(OC(=O)c2ccc(NC(=N)N)cc2)cc1` [Compound No.5], the IC50 in data set [1] is 8.5 nM; in data set [2], 38 nM. For the same compound, in data set [3], the solubility came to 100 mM (≈ 39800 µg/mL). Moreover, the “Fibrinolytic Activity in Rabbits” value in data set [4] (15 min. after) is reported as 0%; in data set [4] (30 min. after), 0%; in data set [4] (60 min. after), 4%; in data set [4] (90 min. after), 20%; in data set [4] (120 min. after), 46%; in data set [4] (180 min. after), 52%. Further, the “Mortality for 48 hrs.” value in data set [5] (1 mg/kg) is listed as 64.2%; in data set [5] (2.5 mg/kg), 50.0%; in data set [5] (5.0 mg/kg), 44.4%.

For `CCCN(CCC)C(=O)COC(=O)c1ccc(OC(=O)c2ccc(NC(=N)N)cc2)cc1` [compound 4], the IC50 in data set [1] came to 1.4 nM; in data set [2] (setting [6]) it was 0.53 nM. The compound further displayed a solubility in data set [3] of 10 mM (≈ 4410 µg/mL).

For `CNC(=O)COC(=O)Cc1ccc(OC(=O)c2ccc(NC(=N)N)cc2)cc1` [compound 8], the IC50 in data set [1] turned out to be 12 nM; in data set [2] (setting [6]), 10 nM. Moreover, the solubility in data set [3] was found to be 10 mM (≈ 3840 µg/mL).
